Measured values taken from patent US8124764B2, “Fused heterocyclyc inhibitor compounds” (Gilead Sciences, Inc., priority 2008, dated 2012).

Legend:
CDK2 = CDK2 (Homo sapiens, UniProt P24941); test: CDK2 inhibition; type: biochemical
HDAC 1 = HDAC 1 (Homo sapiens, UniProt Q13547); test: HDAC 1 inhibition assay with about 3 hours enzyme/compound preincubation (fluorophore/quencher peptide substrate); type: biochemical; conditions: 3-hour preincubation of enzyme with compound; read-out: HDAC 1 inhibitory activity (IC50 [μM]) (3-hour preincubation)
Protocol: HDAC inhibitory activity of the compound of Example 1 was measured by two types of assays in which HDAC 1 was used as a target molecule. The first assay was carried out without preincubation after addition of the enzyme. The test compound was suspended in and titrated in dmso. It was then spotted into a 384-well test plate. The enzyme, HDAC 1, was diluted in assay buffer containing 25 mM Tris-HCl (pH 8.0), 137 mM NaCl, 2.7 mM KCl, and 0.01% Tween-20 and added to the pre-spotted compound. The peptide substrate containing a fluorophore/quencher pair was diluted in the same assay buffer and added to the compound/enzyme mix initiating the reaction. The reaction incubated at room temperature for about 45 minutes. A concentrated developer solution was diluted in the assay buffer, and added to the reaction. The reaction was incubated at room temperature for about 15 minutes and relative fluorescence was read on an instrument reader.
The second assay is similar to the first assay described above, except that preincubation is carried out for about 3 hours after the enzyme is introduced. The test compound was suspended in, and titrated in DMSO. It was then spotted into a 384-well test plate. The enzyme, HDAC 1, was diluted in the same assay buffer as used in the previous assay and added to the pre-spotted compound. The enzyme/compound mix was incubated at room temperature for about 3 hours. The peptide substrate containing a fluorophore/quencher pair was diluted in the assay buffer and added to the compound/enzyme mix initiating the reaction. The reaction incubated at room temperature for 45 minutes. A concentrated developer solution was diluted in the assay buffer, and added to the reaction. The reaction was incubated at room temperature for about 15 minutes and relative fluorescence was read on an instrument reader.

Chain of HDAC 1 (Q13547 whole entry, species assumed): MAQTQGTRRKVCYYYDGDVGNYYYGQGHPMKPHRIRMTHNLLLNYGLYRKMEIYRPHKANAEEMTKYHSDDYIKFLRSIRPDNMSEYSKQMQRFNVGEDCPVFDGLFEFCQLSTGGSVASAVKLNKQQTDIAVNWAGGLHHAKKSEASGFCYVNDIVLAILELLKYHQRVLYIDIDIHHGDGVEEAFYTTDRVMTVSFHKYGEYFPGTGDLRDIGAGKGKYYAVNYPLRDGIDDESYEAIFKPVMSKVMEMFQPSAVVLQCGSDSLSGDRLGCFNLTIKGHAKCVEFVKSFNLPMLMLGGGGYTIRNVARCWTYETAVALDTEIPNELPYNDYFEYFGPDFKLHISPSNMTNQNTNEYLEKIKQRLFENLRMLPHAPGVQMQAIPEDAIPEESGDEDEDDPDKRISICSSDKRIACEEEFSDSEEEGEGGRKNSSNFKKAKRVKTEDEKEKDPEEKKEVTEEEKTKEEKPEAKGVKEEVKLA

Row | SMILES | IC50 (CDK2) [µM] | IC50 (HDAC 1) [µM]
1 | Cc1nc2cc(OCCN3CCOCC3)ccn2c1-c1ccnc(Nc2ccc(C(=O)Nc3ccccc3N)cc2)n1 [Example 29, N-(2-aminophenyl)-4-(4-(2-methyl-7-(2-morpholinoethoxy)imidazo[1,2-a]pyridin-3-yl)pyrimidin-2-ylamino)benzamide] | 2.13 | 0.315
2 | Cc1nc2cc(OCCN(C)C)ccn2c1-c1ccnc(Nc2ccc(C(=O)Nc3ccccc3N)cc2)n1 [Example 30, N-(2-Amino-phenyl)-4-{4-[7-(2-dimethylamino-ethoxy)-2-methyl-imidazo[1,2-a]pyridin-3-yl]-pyrimidin-2-ylamino}-benzamide] | 1.07 | 0.118
3 | COCCOc1ccn2c(-c3ccnc(Nc4ccc(C(=O)Nc5ccccc5N)cc4)n3)c(C)nc2c1 [Example 31, N-(2-Amino-phenyl)-4-{4-[7-(2-methoxy-ethoxy)-2-methyl-imidazo[1,2-a]pyridin-3-yl]-pyrimidin-2-ylamino}-benzamide] | 0.4 | 0.243
4 | Cc1nc2cc(NCCN(C)C)ccn2c1-c1ccnc(Nc2ccc(C(=O)Nc3ccccc3N)cc2)n1 [Example 32, N-(2-Amino-phenyl)-4-{4-[7-(2-dimethylamino-ethylamino)-2-methyl-imidazo[1,2-a]pyridin-3-yl]-pyrimidin-2-ylamino}-benzamide] | 2.58 | 0.141
5 | Cc1nc2ccccn2c1-c1ccnc(Nc2ccc(C(=O)NO)cc2F)n1 [Example 33, 3-Fluoro-N-hydroxy-4-[4-(2-methyl-imidazo[1,2-a]pyridin-3-yl)-pyrimidin-2-ylamino]-benzamide] | 0.22 | 0.126
6 | Cc1nc2ccccn2c1-c1ccnc(Nc2ccc(C(=O)Nc3ccccc3N)cc2F)n1 [Example 34, N-(2-Amino-phenyl)-3-fluoro-4-[4-(2-methyl-imidazo[1,2-a]pyridin-3-yl)-pyrimidin-2-ylamino]-benzamide] | 0.86 | 1.56
7 | Cc1nc2ccccn2c1-c1ccnc(Nc2ccc(C(=O)NO)c(F)c2)n1 [Example 35, 2-Fluoro-N-hydroxy-4-[4-(2-methyl-imidazo[1,2-a]pyridin-3-yl)-pyrimidin-2-ylamino]-benzamide] | 0.06 | 0.128
8 | Cc1nc2ccccn2c1-c1ccnc(Nc2ccc(C(=O)Nc3ccccc3N)c(F)c2)n1 [Example 36, N-(2-Amino-phenyl)-2-fluoro-4-[4-(2-methyl-imidazo[1,2-a]pyridin-3-yl)-pyrimidin-2-ylamino]-benzamide] | 0.11 | > 10
9 | Cc1nc2ccc(C(=O)NCCN(C)C)cn2c1-c1ccnc(Nc2ccc(C(=O)Nc3ccccc3N)cc2)n1 [Example 37, 3-(2-(4-(2-aminophenylcarbamoyl)phenylamino)pyrimidin-4-yl)-N-(2-(dimethylamino)ethyl)-2-methylimidazo[1,2-a]pyridine-6-carboxamide] | 1.88 | 0.132
10 | COCCNC(=O)c1ccc2nc(C)c(-c3ccnc(Nc4ccc(C(=O)Nc5ccccc5N)cc4)n3)n2c1 [Example 38, 3-(2-(4-(2-aminophenylcarbamoyl)phenylamino)pyrimidin-4-yl)-N-(2-methoxyethyl)-2-methylimidazo[1,2-a]pyridine-6-carboxamide] | 2.74 | 0.312
11 | Cc1nc2ccc(C(=O)N3CCN(C)CC3)cn2c1-c1ccnc(Nc2ccc(C(=O)Nc3ccccc3N)cc2)n1 [Example 39, N-(2-Amino-phenyl)-4-{4-[2-methyl-6-(4-methyl-piperazine-1-carbonyl)-imidazo[1,2-a]pyridin-3-yl]-pyrimidin-2-ylamino}-benzamide] | 7.94 | 0.563
12 | Cc1nc2ccc(C(=O)NCCN3CCOCC3)cn2c1-c1ccnc(Nc2ccc(C(=O)Nc3ccccc3N)cc2)n1 [Example 40, 3-(2-(4-(2-aminophenylcarbamoyl)phenylamino)pyrimidin-4-yl)-2-methyl-N-(2-morpholinoethyl)imidazo[1,2-a]pyridine-6-carboxamide] | 7.1 | 0.347
13 | COCCOc1ccc2nc(C)c(-c3ccnc(Nc4ccc(C(=O)Nc5ccccc5N)cc4)n3)n2c1 [Example 41, N-(2-Amino-phenyl)-4-{4-[6-(2-methoxy-ethoxy)-2-methyl-imidazo[1,2-a]pyridin-3-yl]-pyrimidin-2-ylamino}-benzamide] | 4.34 | 0.877
14 | COc1ccc2nc(C)c(-c3ccnc(Nc4ccc(C(=O)Nc5ccccc5N)cc4)n3)n2c1 [Example 42, N-(2-Amino-phenyl)-4-[4-(6-methoxy-2-methyl-imidazo[1,2-a]pyridin-3-yl)-pyrimidin-2-ylamino]-benzamide] | 0.29 | 0.388
15 | COc1ccc2nc(C)c(-c3ccnc(Nc4ccc(C(=O)NO)cc4)n3)n2c1 [Example 43, N-Hydroxy-4-[4-(6-methoxy-2-methyl-imidazo[1,2-a]pyridin-3-yl)-pyrimidin-2-ylamino]-benzamide] | 0.08 | 0.14
16 | Cc1nc2c(F)cccn2c1-c1ccnc(Nc2ccc(C(=O)NO)cc2)n1 [Example 44, 4-[4-(8-Fluoro-2-methyl-imidazo[1,2-a]pyridin-3-yl)-pyrimidin-2-ylamino]-N-hydroxy-benzamide] | 0.09 | 0.251
17 | Cc1nc2c(F)cccn2c1-c1ccnc(Nc2ccc(C(=O)Nc3ccccc3N)cc2)n1 [Example 45, N-(2-Amino-phenyl)-4-[4-(8-fluoro-2-methyl-imidazo[1,2-a]pyridin-3-yl)-pyrimidin-2-ylamino]-benzamide] | 0.35 | 0.178
18 | Cc1nc2cc(CN(C)C)ccn2c1-c1ccnc(Nc2ccc(C(=O)Nc3ccccc3N)cc2)n1 [Example 46, N-(2-Amino-phenyl)-4-[4-(7-dimethylaminomethyl-2-methyl-imidazo[1,2-a]pyridin-3-yl)-pyrimidin-2-ylamino]-benzamide] | 1.61 | 0.13
19 | Cc1nc2ccc(Br)cn2c1-c1ccnc(Nc2ccc(C(=O)Nc3ccccc3N)cc2)n1 [Example 47, N-(2-Amino-phenyl)-4-[4-(6-bromo-2-methyl-imidazo[1,2-a]pyridin-3-yl)-pyrimidin-2-ylamino]-benzamide] | 0.14 | > 10
20 | COc1ccn2c(-c3ccnc(Nc4ccc(C(=O)Nc5ccccc5N)cc4)n3)c(C(F)(F)F)nc2c1 [Example 48, N-(2-Amino-phenyl)-4-[4-(7-methoxy-2-trifluoromethyl-imidazo[1,2-a]pyridin-3-yl)-pyrimidin-2-ylamino]-benzamide] | 0.14 | 0.06
21 | COc1ccn2c(-c3ccnc(Nc4ccc(C(=O)NO)cc4)n3)c(C(F)(F)F)nc2c1 [Example 49, N-Hydroxy-4-[4-(7-methoxy-2-trifluoromethyl-imidazo[1,2-a]pyridin-3-yl)-pyrimidin-2-ylamino]-benzamide] | 0.06 | 0.199
22 | Nc1ccccc1NC(=O)c1ccc(Nc2ncc(F)c(-c3cnc4ccccn34)n2)cc1 [Example 50, N-(2-Amino-phenyl)-4-(5-fluoro-4-imidazo[1,2-a]pyridin-3-yl-pyrimidin-2-ylamino)-benzamide] | 0.06 | > 20
23 | O=C(NO)c1ccc(Nc2ncc(F)c(-c3cnc4ccccn34)n2)cc1 [Example 51, 4-(5-Fluoro-4-imidazo[1,2-a]pyridin-3-yl-pyrimidin-2-ylamino)-N-hydroxy-benzamide] | 0.014 | 0.211
24 | Cc1nc2ccccn2c1-c1ccnc(Nc2ccc(C(=O)NO)s2)n1 [Example 52, N-hydroxy-5-(4-(2-methylimidazo[1,2-a]pyridin-3-yl)pyrimidin-2-ylamino)thiophene-2-carboxamide] | 0.07 | 0.31
25 | Cc1nc2ccccn2c1-c1ccnc(Nc2ccc(C(=O)NO)cc2)c1 [Example 53, N-Hydroxy-4-[4-(2-methyl-imidazo[1,2-a]pyridin-3-yl)-pyridin-2-ylamino]-benzamide] | 3.6 | 0.021
26 | Cc1nc2ccccn2c1-c1ccnc(Nc2ccc(C(=O)Nc3ccccc3N)cc2)c1 [Example 54, N-(2-Amino-phenyl)-4-[4-(2-methyl-imidazo[1,2-a]pyridin-3-yl)-pyridin-2-ylamino]-benzamide] | 13.1 | 0.053
27 | Nc1ccccc1NC(=O)c1ccc(Nc2cc(-c3cnc4ccccn34)ncn2)cc1 [Example 55, N-(2-Amino-phenyl)-4-(6-imidazo[1,2-a]pyridin-3-yl-pyrimidin-4-ylamino)-benzamide] | > 40 | 0.2
28 | O=C(NO)c1ccc(N(CC(F)(F)F)c2nccc(-c3cnc4ccccn34)n2)cc1 [Example 57, N-Hydroxy-4-[(4-imidazo[1,2-a]pyridin-3-yl-pyrimidin-2-yl)-(2,2,2-trifluoro-ethyl)-amino]-benzamide] | 2.87 | 0.147
29 | Nc1ccccc1NC(=O)c1ccc(N(CC(F)(F)F)c2nccc(-c3cnc4ccccn34)n2)cc1 [Example 58, N-(2-Amino-phenyl)-4-[(4-imidazo[1,2-a]pyridin-3-yl-pyrimidin-2-yl)-(2,2,2-trifluoro-ethyl)-amino]-benzamide] | > 40 | 5.58
